Source: ChEMBL document CHEMBL1275260, “N-acetylcysteine-mediated modulation of bacterial antibiotic susceptibility” (2010)
Values after ≈ are worked out from the molar mass of the structure shown. Active and inactive are the calls of the source. The rule behind the calls is not given here.

Columns and labels:
Klebsiella aerogenes [1] = experiment: Antibacterial activity against Klebsiella aerogenes NCIM 2281; type: functional
Escherichia coli [2] = experiment: Antibacterial activity against Escherichia coli DH5alpha; type: functional; details: DH5[alpha]
Pseudomonas aeruginosa [3] = experiment: Antibacterial activity against Pseudomonas aeruginosa NCIM 5029; type: functional
Pseudomonas aeruginosa [4] = experiment: Antibacterial activity against Pseudomonas aeruginosa NCIM 5029 in presence of 10 mM N-Acetylcysteine; type: functional
Escherichia coli [5] = experiment: Antibacterial activity against Escherichia coli W3110; type: functional; details: K-12 substr. W3110
Klebsiella aerogenes [6] = experiment: Antibacterial activity against Klebsiella aerogenes NCIM 2281 in presence of 10 mM N-Acetylcysteine; type: functional
Escherichia coli [7] = experiment: Antibacterial activity against Escherichia coli MG1655; type: functional
Klebsiella pneumoniae = experiment: Antibacterial activity against Klebsiella pneumoniae NCIM 2883 assessed as growth inhibition in presence of 10 mM N-Acetylcysteine; type: functional, organism-based
Escherichia coli [8] = experiment: Antibacterial activity against Escherichia coli MG1655 in presence of 10 mM N-Acetylcysteine; type: functional
Escherichia coli [9] = experiment: Antibacterial activity against Escherichia coli DH5alpha in presence of 10 mM N-Acetylcysteine; type: functional; details: DH5[alpha]
Escherichia coli [10] = experiment: Antibacterial activity against Escherichia coli W3110 in presence of 10 mM N-Acetylcysteine; type: functional; details: K-12 substr. W3110

SMILES	MIC (Klebsiella aerogenes [1]) [mg/L]	MIC (Escherichia coli [2]) [mg/L]	MIC (Pseudomonas aeruginosa [3]) [mg/L]	MIC (Pseudomonas aeruginosa [4]) [mg/L]	MIC (Escherichia coli [5]) [mg/L]	MIC (Klebsiella aerogenes [6]) [mg/L]	MIC (Escherichia coli [7]) [mg/L]	Activity (Klebsiella pneumoniae)	MIC (Escherichia coli [8]) [mg/L]	MIC (Escherichia coli [9]) [mg/L]	MIC (Escherichia coli [10]) [mg/L]
CC1(C)S[C@@H]2[C@H](NC(=O)[C@H](N)c3ccccc3)C(=O)N2[C@H]1C(=O)O [AMPICILLIN]	32 (≈ 91.6 µM)	4 (≈ 11.4 µM)	1020 (≈ 2930 µM)	128	8 (≈ 22.9 µM)	32	4 (≈ 11.4 µM)	Active	1	4	
O=C(N[C@H](CO)[C@H](O)c1ccc([N+](=O)[O-])cc1)C(Cl)Cl [CHLORAMPHENICOL]	1 (≈ 3.09 µM)	2 (≈ 6.19 µM)	128 (≈ 396 µM)	128	1 (≈ 3.09 µM)	1	4 (≈ 12.4 µM)	Active	4	2	1
O=C(O)c1cn(C2CC2)c2cc(N3CCNCC3)c(F)cc2c1=O [CIPROFLOXACIN]	0.016 (≈ 0.0483 µM)		1.02 (≈ 3.09 µM)	2.05		0.512		Active	0.512		0.064
CC[C@H]1OC(=O)[C@H](C)[C@@H](O[C@H]2C[C@@](C)(OC)[C@@H](O)[C@H](C)O2)[C@H](C)[C@@H](O[C@@H]2O[C@H](C)C[C@H](N(C)C)[C@H]2O)[C@](C)(O)C[C@@H](C)C(=O)[C@H](C)[C@@H](O)[C@]1(C)O [ERYTHROMYCIN]	32 (≈ 43.6 µM)	16 (≈ 21.8 µM)	256 (≈ 349 µM)	1020	4 (≈ 5.45 µM)	1020	32 (≈ 43.6 µM)	Active	1020	16	512
NC[C@H]1O[C@H](O[C@H]2[C@H](O)[C@@H](O[C@H]3O[C@H](CO)[C@@H](O)[C@H](N)[C@H]3O)[C@H](N)C[C@@H]2N)[C@H](O)[C@@H](O)[C@@H]1O [KANAMYCIN]	1 (≈ 2.06 µM)	0.5 (≈ 1.03 µM)	64 (≈ 132 µM)	256	1 (≈ 2.06 µM)	16	1 (≈ 2.06 µM)	Active	32	0.5	16
CC1COc2c(N3CCN(C)CC3)c(F)cc3c(=O)c(C(=O)O)cn1c23 (stereo not given) [OFLOXACIN]	0.064 (≈ 0.177 µM)		0.256 (≈ 0.708 µM)	2.05		0.512	0.032 (≈ 0.0886 µM)	Active	1.02		0.032
CC1(C)S[C@@H]2[C@H](NC(=O)Cc3ccccc3)C(=O)N2[C@H]1C(=O)O [PENICILLIN G]	64 (≈ 191 µM)		> 4100	2050	64 (≈ 191 µM)	64	64 (≈ 191 µM)	Active	64		64
CN[C@@H]1[C@H](O)[C@H](NC)[C@H]2O[C@@]3(O)C(=O)C[C@@H](C)O[C@H]3O[C@@H]2[C@H]1O [SPECTINOMYCIN]	8 (≈ 24.1 µM)	4 (≈ 12 µM)	256 (≈ 770 µM)	512	6 (≈ 18.1 µM)	128	8 (≈ 24.1 µM)	Active	256	4	128
CN[C@@H]1[C@H](O[C@H]2[C@H](O[C@H]3[C@H](O)[C@@H](O)[C@H](N=C(N)N)[C@@H](O)[C@@H]3N=C(N)N)O[C@@H](C)[C@]2(O)C=O)O[C@@H](CO)[C@H](O)[C@H]1O [STREPTOMYCIN]	2 (≈ 3.44 µM)	1 (≈ 1.72 µM)	8 (≈ 13.8 µM)	64	2 (≈ 3.44 µM)	16	2 (≈ 3.44 µM)	Active	32	1	16
CN(C)[C@@H]1C(O)=C(C(N)=O)C(=O)[C@@]2(O)C(O)=C3C(=O)c4c(O)cccc4[C@@](C)(O)[C@H]3C[C@@H]12 [TETRACYCLINE]	1 (≈ 2.25 µM)	1 (≈ 2.25 µM)	8 (≈ 18 µM)	8	0.062 (≈ 0.14 µM)	1	1 (≈ 2.25 µM)	Active	1	1	0.062
